The target in experiment [1] is T1, His tagged PTPN2 (TC45) protein (Homo sapiens, UniProt P17706).
T1 construct: made in house
T1 sequence (P17706 with tags, fused parts or gaps isoform P17706-2): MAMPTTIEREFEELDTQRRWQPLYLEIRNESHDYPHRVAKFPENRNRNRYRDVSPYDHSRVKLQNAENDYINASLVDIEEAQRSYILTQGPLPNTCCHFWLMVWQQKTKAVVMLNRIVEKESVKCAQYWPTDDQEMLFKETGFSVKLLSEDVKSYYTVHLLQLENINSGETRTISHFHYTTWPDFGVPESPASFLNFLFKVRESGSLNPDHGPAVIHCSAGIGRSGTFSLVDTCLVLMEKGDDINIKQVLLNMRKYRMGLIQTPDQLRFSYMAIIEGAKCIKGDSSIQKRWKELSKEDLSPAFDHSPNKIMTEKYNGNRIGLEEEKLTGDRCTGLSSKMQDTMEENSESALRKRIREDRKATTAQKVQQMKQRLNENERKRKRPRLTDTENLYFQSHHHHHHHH
Kind of experiment: Mobility shift assay (MSA) to determine potency of PTPN2 inhibitors. Format: biochemical. As to conditions: 0.5 nM enzyme, 2 μM substrate. A digest of the protocol: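 His-tagged human PTPN2 (TC45), 0.5 nM, preincubated 10 min at room temperature with compound (12-point, 1:3 dilutions) in HEPES pH 7.5 buffer with EGTA, EDTA, Tween 20 and DTT. Then 2 μM OG488-labelled phospho-insulin-receptor peptide was added for 10 min and quenched. % conversion was read by mobility shift, and IC50 came from % inhibition.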

The target of experiment [2] is T2, His tagged full-length PTPN1 protein (Homo sapiens, UniProt P18031).
T2 construct: made in house
T2 sequence (P18031 with tags, fused parts or gaps): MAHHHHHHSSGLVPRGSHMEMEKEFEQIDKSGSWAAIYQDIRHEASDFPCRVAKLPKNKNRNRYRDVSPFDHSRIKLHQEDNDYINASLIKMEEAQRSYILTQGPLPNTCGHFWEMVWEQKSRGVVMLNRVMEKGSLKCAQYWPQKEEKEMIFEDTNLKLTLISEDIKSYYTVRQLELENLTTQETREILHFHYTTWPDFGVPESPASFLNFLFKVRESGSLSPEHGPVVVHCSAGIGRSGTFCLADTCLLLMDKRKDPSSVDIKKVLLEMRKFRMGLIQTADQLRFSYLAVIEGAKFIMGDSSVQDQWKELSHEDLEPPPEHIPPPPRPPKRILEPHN
As to the kind of experiment: Mobility shift assay (MSA) to determine potency of PTPN1 inhibitors. Format: biochemical. As to conditions: 0.5 nM enzyme, 2 μM substrate. A digest of the protocol:
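His-tagged full-length human PTPN1 (0.5 nM) preincubated with compound 10 min at room temperature in pH 7.5 HEPES buffer with EGTA, EDTA, Tween 20 and DTT. Dephosphorylation of 2 μM fluorescent phospho-insulin-receptor peptide over 10 min measured by mobility shift. IC50 from % inhibition across a 12-point, 1:3 dilution series.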

The structures appear in SMILES notation.

As a reminder, the IC50 is the concentration that inhibits the measured activity by half. Take `Cc1n[nH]c(C)c1CN1CCc2cc(O)c(N3CC(=O)NS3(=O)=O)c(F)c2C1` [Compound 212]: the IC50 in experiment [1] and in experiment [2] was above 100 nM each time.
As for `Cc1nn(C)cc1CCN1CCc2cc(O)c(N3CC(=O)NS3(=O)=O)c(F)c2C1` [Compound 256], the IC50 in experiment [1] and in experiment [2] was 1 to 10 nM throughout.
As to `CC(C)CNCC1CCc2cc(O)c(N3CC(=O)NS3(=O)=O)c(F)c2C1` (stereo not drawn) [Compound 333, 5-(1-fluoro-3-hydroxy-7-{[(2-methylpropyl)amino]methyl}-5,6,7,8-tetrahydronaphthalen-2-yl)-1λ^6,2,5-thiadiazolidine-1,1,3-trione], the IC50 in experiment [1] and in experiment [2] was 10 to 100 nM in each case.
Take `O=C1CN(c2c(O)cc3c(c2F)CN(C2CC4(CNC4)C2)CC3)S(=O)(=O)N1` [Compound 160]: the half-maximal inhibitory concentration (IC50) in experiment [1] and in experiment [2] was 10 to 100 nM in each case.
Consider `CC(C)CCCN1CCc2cc(O)c(N3CC(=O)NS3(=O)=O)c(F)c2C1` [Compound 145], for which the IC50 in experiment [1] and in experiment [2] was 10 to 100 nM each time.
On to `O=C1CN(c2c(O)cc3c(c2F)CN(CCCc2cccc(C(F)(F)F)c2)CC3)S(=O)(=O)N1` [Compound 294], for which the half-maximal inhibitory concentration (IC50) in experiment [1] and in experiment [2] was 10 to 100 nM in each case.
Regarding `CC(C)CCCN1CCc2cc(O)c(N3CC(=O)NS3(=O)=O)c(F)c2C1=O` [Compound 387, 5-[8-fluoro-6-hydroxy-2-(4-methylpentyl)-1-oxo-1,2,3,4-tetrahydroisoquinolin-7-yl]-1λ^6,2,5-thiadiazolidine-1,1,3-trione], the 50% inhibitory concentration (IC50) in experiment [1] and in experiment [2] was above 100 nM in each case.
`Cc1nn(C)c(C)c1CN1CC2(CC(N3CCc4cc(O)c(N5CC(=O)NS5(=O)=O)c(F)c4C3)C2)C1` [Compound 237]: the IC50 in experiment [1] and in experiment [2] was above 100 nM each time.
As to `CC1C[C@@H](NC(=O)OC(C)(C)C)Cc2c1cc(O)c(N1CC(=O)NS1(=O)=O)c2F` (mixture of isomers) [Compound 392, tert-butyl [(2R)-8-fluoro-6-hydroxy-4-methyl-7-(1,1,4-trioxo-1λ^6,2,5-thiadiazolidin-2-yl)-1,2,3,4-tetrahydronaphthalen-2-yl]carbamate], the IC50 in experiment [1] and in experiment [2] was 10 to 100 nM each time.
Take `O=C1CN(c2c(O)cc3c(c2F)CN(C(=O)NCC2CCCCC2)CC3)S(=O)(=O)N1` [Compound 321]: the IC50 in experiment [1] and in experiment [2] was 1 to 10 nM in each case.
Regarding `CC(C)OCCCN1CCc2cc(O)c(N3CC(=O)NS3(=O)=O)c(F)c2C1` [Compound 251], the half-maximal inhibitory concentration (IC50) in experiment [1] and in experiment [2] was 10 to 100 nM in each case.
`O=C1CN(c2c(O)cc3c(c2F)C[C@H](NCC2C4CCCC42)CO3)S(=O)(=O)N1` (mixture of isomers) [Compound 383, 5-[(3S)-3-({[(1RS,5SR)-bicyclo[3.1.0]hexan-6-yl]methyl}amino)-5-fluoro-7-hydroxy-3,4-dihydro-2H-1-benzopyran-6-yl]-1λ^6,2,5-thiadiazolidine-1,1,3-trione]: the IC50 in experiment [1] and in experiment [2] was 10 to 100 nM in each case.
For `NCC(F)(F)CCCN[C@@H]1CCc2cc(O)c(N3CC(=O)NS3(=O)=O)c(F)c2C1` [Compound 409, 5-{(7R)-7-[(5-amino-4,4-difluoropentyl)amino]-1-fluoro-3-hydroxy-5,6,7,8-tetrahydronaphthalen-2-yl}-1λ^6,2,5-thiadiazolidine-1,1,3-trione], the IC50 in experiment [1] and in experiment [2] was 1 to 10 nM in each case.
With `CC1(CCNC(=O)N2CCc3cc(O)c(N4CC(=O)NS4(=O)=O)c(F)c3C2)CC1` [Compound 281], the IC50 in experiment [1] and in experiment [2] was 10 to 100 nM throughout.
As to `O=C1CN(c2c(O)cc3c(c2F)C[C@H](NCc2nccs2)CC3)S(=O)(=O)N1` [Compound 367, 5-[(7R)-1-fluoro-3-hydroxy-7-{[(1,3-thiazol-2-yl)methyl]amino}-5,6,7,8-tetrahydronaphthalen-2-yl]-1λ^6,2,5-thiadiazolidine-1,1,3-trione], the IC50 in experiment [1] and in experiment [2] was 10 to 100 nM each time.
Take `Cc1n[nH]c(C)c1CCN1CCc2cc(O)c(N3CC(=O)NS3(=O)=O)c(F)c2C1` [Compound 194]: the half-maximal inhibitory concentration (IC50) in experiment [1] and in experiment [2] was 1 to 10 nM throughout.
For `CC(C)CNS(=O)(=O)N1CCc2cc(O)c(N3CC(=O)NS3(=O)=O)c(F)c2C1` [Compound 328, 8-fluoro-6-hydroxy-N-(2-methylpropyl)-7-(1,1,4-trioxo-1λ^6,2,5-thiadiazolidin-2-yl)-3,4-dihydroisoquinoline-2(1H)-sulfonamide], the IC50 in experiment [1] and in experiment [2] was 10 to 100 nM in each case.
For the molecule `NCCC1(CCN[C@@H]2CCc3cc(O)c(N4CC(=O)NS4(=O)=O)c(F)c3C2)CCC1` [Compound 377, 5-[(7R)-7-({2-[1-(2-aminoethyl)cyclobutyl]ethyl}amino)-1-fluoro-3-hydroxy-5,6,7,8-tetrahydronaphthalen-2-yl]-1λ^6,2,5-thiadiazolidine-1,1,3-trione], the results for the concentration for half-maximal inhibition (IC50) in experiment [1] and in experiment [2] were below 1 nM and 1 to 10 nM, respectively.
For the molecule `O=C1CN(c2c(O)cc3c(c2F)CN(CCCCC(F)(F)F)CC3)S(=O)(=O)N1` [Compound 153, 5-[8-fluoro-6-hydroxy-2-(5,5,5-trifluoropentyl)-1,2,3,4-tetrahydroisoquinolin-7-yl]-1λ^6,2,5-thiadiazolidine-1,1,3-trione], the IC50 in experiment [1] and in experiment [2] was 10 to 100 nM in each case.
Take `O=C1CN(c2c(O)cc3c(c2F)CN(C2CNC2)CC3)S(=O)(=O)N1` [Compound 163]: the 50% inhibitory concentration (IC50) in experiment [1] is 10 to 100 nM; in experiment [2] it was above 100 nM.
Taken in the same sequence, the figures for `CC(C)(C)OC(=O)N[C@H]1CC[C@H](CCN2CCc3cc(O)c(N4CC(=O)NS4(=O)=O)c(F)c3C2)CC1` [Compound 300] were 1 to 10 nM and 1 to 10 nM.
The like results for `O=C1CN(c2c(O)cc3c(c2F)CN(CCCC2CCNCC2)CC3)S(=O)(=O)N1` [Compound 219] were, in that order, 10 to 100 nM and 10 to 100 nM.
Regarding `CC(C)CCN[C@@H]1CCc2cc(O)c(N3CC(=O)NS3(=O)=O)c(F)c2[C@H]1O` [Compound 406, 5-{(7R,8R)-1-fluoro-3,8-dihydroxy-7-[(3-methylbutyl)amino]-5,6,7,8-tetrahydronaphthalen-2-yl}-1λ^6,2,5-thiadiazolidine-1,1,3-trione], the IC50 was 10 to 100 nM in experiment [1] and above 100 nM in experiment [2].
Taken in the same sequence, the figures for `CC1(C)CCc2c(cc(O)c(N3CC(=O)NS3(=O)=O)c2F)O1` [Compound 112] were above 100 nM and above 100 nM.
In the case of `O=C1CN(c2c(O)cc3c(c2F)CC(CNCC2CCC2)CC3)S(=O)(=O)N1` (stereo not drawn) [Compound 400, 5-(7-{[(cyclobutylmethyl)amino]methyl}-1-fluoro-3-hydroxy-5,6,7,8-tetrahydronaphthalen-2-yl)-1λ^6,2,5-thiadiazolidine-1,1,3-trione], the concentration for half-maximal inhibition (IC50) in experiment [1] and in experiment [2] was 10 to 100 nM throughout.
In the case of `C[C@@H]1C[C@@H](N)Cc2c1cc(O)c(N1CC(=O)NS1(=O)=O)c2F` [Compound 397, 5-[(5R,7R)-7-amino-1-fluoro-3-hydroxy-5-methyl-5,6,7,8-tetrahydronaphthalen-2-yl]-1λ^6,2,5-thiadiazolidine-1,1,3-trione], the concentration for half-maximal inhibition (IC50) in experiment [1] and in experiment [2] was above 100 nM in each case.
Consider `CC(CN[C@@H]1CCc2cc(O)c(N3CC(=O)NS3(=O)=O)c(F)c2C1)C(F)(F)F` (stereo partly drawn) [Compound 348, 5-{(7R)-1-fluoro-3-hydroxy-7-[(3,3,3-trifluoro-2-methylpropyl)amino]-5,6,7,8-tetrahydronaphthalen-2-yl}-1λ^6,2,5-thiadiazolidine-1,1,3-trione], for which the IC50 in experiment [1] is 1 to 10 nM; in experiment [2], 10 to 100 nM.
The like results for `NCC1CCc2cc(O)c(N3CC(=O)NS3(=O)=O)c(F)c2C1` (stereo not drawn) [Compound 389, 5-[7-(aminomethyl)-1-fluoro-3-hydroxy-5,6,7,8-tetrahydronaphthalen-2-yl]-1λ^6,2,5-thiadiazolidine-1,1,3-trione] were, in that order, 10 to 100 nM and 10 to 100 nM.
The like results for `CCCCC(=N)N1CCc2cc(O)c(N3CC(=O)NS3(=O)=O)c(F)c2C1` [Compound 158] were, in that order, 10 to 100 nM and above 100 nM.
Taken in the same sequence, the figures for `O=C1CN(c2c(O)cc3c(c2F)C[C@H](NCCC2CCCC2)CC3)S(=O)(=O)N1` [Compound 200, 5-{(7R)-7-[(2-cyclopentylethyl)amino]-1-fluoro-3-hydroxy-5,6,7,8-tetrahydronaphthalen-2-yl}-1λ^6,2,5-thiadiazolidine-1,1,3-trione] were below 1 nM and below 1 nM.

(Values after patent US20250122160A1, “PROTEIN TYROSINE PHOSPHATASE INHIBITORS AND METHODS OF USE THEREOF” (Calico Life Sciences LLC, priority 0001, published 2025).)
